Data reported in patent publication US12410208B2, “(2-acetamidyl)thio-beta-D-galactopyranoside derivatives” (Idorsia Pharmaceuticals Ltd, priority 2020, dated 2025).

How the values were obtained:
[1] = target: human Gal-1 (hGal-1) (Homo sapiens, UniProt P09382); experiment: Competitive binding assay: biotinylated hGal-1 binding to microplate-adsorbed asialofetuin (ASF), spectrophotometric; conditions: hGal-1 binding to asialofetuin; Table 15; R and S epimers of selected Examples also listed; read-out: IC50 (Galectin-1 inhibition)
Sequence of human Gal-1 (hGal-1) (P09382 whole entry): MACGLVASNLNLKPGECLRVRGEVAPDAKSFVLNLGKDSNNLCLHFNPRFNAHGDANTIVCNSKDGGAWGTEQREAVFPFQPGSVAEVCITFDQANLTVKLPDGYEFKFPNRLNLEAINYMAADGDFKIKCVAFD
How it was run: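 Biotinylated hGal-1 (300-1000 ng/mL) incubated with compound on asialofetuin-coated plates 3 hours at 4 °C, washed, then streptavidin-peroxidase (80 ng/mL) 1 hour at 4 °C. ABTS substrate read spectrophotometrically; IC50 reported as mean of several measurements.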

[2] = target: biotinylated human Gal-3 (hGal-3) (Homo sapiens, UniProt P17931); experiment: Competitive binding assay: biotinylated hGal-3 binding to microplate-adsorbed asialofetuin (ASF), spectrophotometric; conditions: Gal-3 inhibition, Table 4; read-out: IC50
Sequence of biotinylated human Gal-3 (hGal-3) (P17931 whole entry): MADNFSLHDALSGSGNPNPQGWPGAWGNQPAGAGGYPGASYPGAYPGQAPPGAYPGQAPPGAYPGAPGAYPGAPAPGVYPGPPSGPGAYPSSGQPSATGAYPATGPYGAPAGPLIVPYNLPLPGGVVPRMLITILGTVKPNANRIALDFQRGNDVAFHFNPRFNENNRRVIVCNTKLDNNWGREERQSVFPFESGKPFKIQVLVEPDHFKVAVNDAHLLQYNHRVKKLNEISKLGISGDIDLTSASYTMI
How it was run: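 Competitive binding of biotinylated hGal-3 to plate-adsorbed asialofetuin was measured with serially diluted compounds over 3 h at 4° C. Bound protein was detected with streptavidin-peroxidase and ABTS substrate by absorbance. IC50 values are means of several measurements.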

Row | Structure (SMILES) | IC50 [1] [nM] | IC50 [2] [nM]
1 | CC1CN(C(=O)[C@@H](S[C@@H]2O[C@H](CO)[C@H](O)[C@H](n3cc(-c4cc(F)c(F)c(F)c4)nn3)[C@H]2O)C2(O)CCOCC2)C1 [Example 2.41.205S., (S)-2-(((2S,3R,4S,5R,6R)-3,5-Dihydroxy-6-(hydroxymethyl)-4-(4-(3,4,5-trifluorophenyl)-1H-1,2,3-triazol-1-yl)tetrahydro-2H-pyran-2-yl)thio)-2-(4-hydroxytetrahydro-2H-pyran-4-yl)-1-(3-methylazetidin-1-yl)ethan-1-one] | 550 | 120
2 | O=C(C(S[C@@H]1O[C@H](CO)[C@H](O)[C@H](n2cc(-c3cc(F)c(F)c(F)c3)nn2)[C@H]1O)C1(O)CCOCC1)N1CCC1 (stereo partly drawn) [Example 2.41.206., 1-(Azetidin-1-yl)-2-(((2S,3R,4S,5R,6R)-3,5-dihydroxy-6-(hydroxymethyl)-4-(4-(3,4,5-trifluorophenyl)-1H-1,2,3-triazol-1-yl)tetrahydro-2H-pyran-2-yl)thio)-2-(4-hydroxytetrahydro-2H-pyran-4-yl)ethan-1-one] | 1500 | 260
3 | CN(Cc1ccccc1)C(=O)C(S[C@@H]1O[C@H](CO)[C@H](O)[C@H](n2cc(-c3cc(F)c(F)c(F)c3)nn2)[C@H]1O)C1(O)CCOCC1 (stereo partly drawn) [Example 2.41.207., N-Benzyl-2-(((2S,3R,4S,5R,6R)-3,5-dihydroxy-6-(hydroxymethyl)-4-(4-(3,4,5-trifluorophenyl)-1H-1,2,3-triazol-1-yl)tetrahydro-2H-pyran-2-yl)thio)-2-(4-hydroxytetrahydro-2H-pyran-4-yl)-N-methylacetamide] | 72 | 70
4 | CN(Cc1ccccc1)C(=O)[C@H](S[C@@H]1O[C@H](CO)[C@H](O)[C@H](n2cc(-c3cc(F)c(F)c(F)c3)nn2)[C@H]1O)C1(O)CCOCC1 [Example 2.41.207R., (R)-N-Benzyl-2-(((2S,3R,4S,5R,6R)-3,5-dihydroxy-6-(hydroxymethyl)-4-(4-(3,4,5-trifluorophenyl)-1H-1,2,3-triazol-1-yl)tetrahydro-2H-pyran-2-yl)thio)-2-(4-hydroxytetrahydro-2H-pyran-4-yl)-N-methylacetamide] | 51500 | 8230
5 | O=C(C(S[C@@H]1O[C@H](CO)[C@H](O)[C@H](n2cc(-c3cc(F)c(F)c(F)c3)nn2)[C@H]1O)C1(O)CCOCC1)N1CCCCC1 (stereo partly drawn) [Example 2.41.208., 2-(((2S,3R,4S,5R,6R)-3,5-Dihydroxy-6-(hydroxymethyl)-4-(4-(3,4,5-trifluorophenyl)-1H-1,2,3-triazol-1-yl)tetrahydro-2H-pyran-2-yl)thio)-2-(4-hydroxytetrahydro-2H-pyran-4-yl)-1-(piperidin-1-yl)ethan-1-one] | 220 | 90
6 | O=C([C@H](S[C@@H]1O[C@H](CO)[C@H](O)[C@H](n2cc(-c3cc(F)c(F)c(F)c3)nn2)[C@H]1O)C1(O)CCOCC1)N1CCCCC1 [Example 2.41.208R., (R)-2-(((2S,3R,4S,5R,6R)-3,5-Dihydroxy-6-(hydroxymethyl)-4-(4-(3,4,5-trifluorophenyl)-1H-1,2,3-triazol-1-yl)tetrahydro-2H-pyran-2-yl)thio)-2-(4-hydroxytetrahydro-2H-pyran-4-yl)-1-(piperidin-1-yl)ethan-1-one] | 32300 | 1650
7 | O=C([C@@H](S[C@@H]1O[C@H](CO)[C@H](O)[C@H](n2cc(-c3cc(F)c(F)c(F)c3)nn2)[C@H]1O)C1(O)CCOCC1)N1CCCCC1 [Example 2.41.208S., (S)-2-(((2S,3R,4S,5R,6R)-3,5-Dihydroxy-6-(hydroxymethyl)-4-(4-(3,4,5-trifluorophenyl)-1H-1,2,3-triazol-1-yl)tetrahydro-2H-pyran-2-yl)thio)-2-(4-hydroxytetrahydro-2H-pyran-4-yl)-1-(piperidin-1-yl)ethan-1-one] | 800 | 20
8 | O=C(C(S[C@@H]1O[C@H](CO)[C@H](O)[C@H](n2cc(-c3cc(F)c(F)c(F)c3)nn2)[C@H]1O)C1(O)CCOCC1)N1CCc2ccccc21 (stereo partly drawn) [Example 2.41.209., 2-(((2S,3R,4S,5R,6R)-3,5-Dihydroxy-6-(hydroxymethyl)-4-(4-(3,4,5-trifluorophenyl)-1H-1,2,3-triazol-1-yl)tetrahydro-2H-pyran-2-yl)thio)-2-(4-hydroxytetrahydro-2H-pyran-4-yl)-1-(indolin-1-yl)ethan-1-one] | 310 | 150
9 | O=C([C@@H](S[C@@H]1O[C@H](CO)[C@H](O)[C@H](n2cc(-c3cc(F)c(F)c(F)c3)nn2)[C@H]1O)C1(O)CCOCC1)N1CCc2ccccc21 [Example 2.41.209S., (S)-2-(((2S,3R,4S,5R,6R)-3,5-Dihydroxy-6-(hydroxymethyl)-4-(4-(3,4,5-trifluorophenyl)-1H-1,2,3-triazol-1-yl)tetrahydro-2H-pyran-2-yl)thio)-2-(4-hydroxytetrahydro-2H-pyran-4-yl)-1-(indolin-1-yl)ethan-1-one] | 170 | 100
10 | CN(Cc1cccs1)C(=O)C(S[C@@H]1O[C@H](CO)[C@H](O)[C@H](n2cc(-c3cc(F)c(F)c(F)c3)nn2)[C@H]1O)C1(O)CCOCC1 (stereo partly drawn) [Example 2.41.210., 2-(((2S,3R,4S,5R,6R)-3,5-dihydroxy-6-(hydroxymethyl)-4-(4-(3,4,5-trifluorophenyl)-1H-1,2,3-triazol-1-yl)tetrahydro-2H-pyran-2-yl)thio)-2-(4-hydroxytetrahydro-2H-pyran-4-yl)-N-methyl-N-(thiophen-2-ylmethyl)acetamide] | 1120 | 440
11 | O=C(C(S[C@@H]1O[C@H](CO)[C@H](O)[C@H](n2cc(-c3cc(F)c(F)c(F)c3)nn2)[C@H]1O)C1(O)CCOCC1)N1CCCC1 (stereo partly drawn) [Example 2.41.211., 2-(((2S,3R,4S,5R,6R)-3,5-Dihydroxy-6-(hydroxymethyl)-4-(4-(3,4,5-trifluorophenyl)-1H-1,2,3-triazol-1-yl)tetrahydro-2H-pyran-2-yl)thio)-2-(4-hydroxytetrahydro-2H-pyran-4-yl)-1-(pyrrolidin-1-yl)ethan-1-one] | 330 | 130
12 | CN(CC1CCCC1)C(=O)[C@H](S[C@@H]1O[C@H](CO)[C@H](O)[C@H](n2cc(-c3cc(F)c(F)c(F)c3)nn2)[C@H]1O)C1(O)CCOCC1 [Example 2.41.212., (R)-N-(cyclopentylmethyl)-2-(((2S,3R,4S,5R,6R)-3,5-dihydroxy-6-(hydroxymethyl)-4-(4-(3,4,5-trifluorophenyl)-1H-1,2,3-triazol-1-yl)tetrahydro-2H-pyran-2-yl)thio)-2-(4-hydroxytetrahydro-2H-pyran-4-yl)-N-methylacetamide] | 200 | 80
13 | CN(CC1CCOCC1)C(=O)C(S[C@@H]1O[C@H](CO)[C@H](O)[C@H](n2cc(-c3cc(F)c(F)c(F)c3)nn2)[C@H]1O)C1(O)CCOCC1 (stereo partly drawn) [Example 2.41.213., 2-(((2S,3R,4S,5R,6R)-3,5-dihydroxy-6-(hydroxymethyl)-4-(4-(3,4,5-trifluorophenyl)-1H-1,2,3-triazol-1-yl)tetrahydro-2H-pyran-2-yl)thio)-2-(4-hydroxytetrahydro-2H-pyran-4-yl)-N-methyl-N-((tetrahydro-2H-pyran-4-yl)methyl)acetamide] | 200 | 80
14 | CCN(CC1CCOCC1)C(=O)C(S[C@@H]1O[C@H](CO)[C@H](O)[C@H](n2cc(-c3cc(F)c(F)c(F)c3)nn2)[C@H]1O)C1(O)CCOCC1 (stereo partly drawn) [Example 2.41.214., 2-(((2S,3R,4S,5R,6R)-3,5-Dihydroxy-6-(hydroxymethyl)-4-(4-(3,4,5-trifluorophenyl)-1H-1,2,3-triazol-1-yl)tetrahydro-2H-pyran-2-yl)thio)-N-ethyl-2-(4-hydroxytetrahydro-2H-pyran-4-yl)-N-((tetrahydro-2H-pyran-4-yl)methyl)acetamide] | 120 | 30
15 | CN(Cc1cn(C)cn1)C(=O)C(S[C@@H]1O[C@H](CO)[C@H](O)[C@H](n2cc(-c3cc(F)c(F)c(F)c3)nn2)[C@H]1O)C1(O)CCOCC1 (stereo partly drawn) [Example 2.41.215., 2-(((2S,3R,4S,5R,6R)-3,5-Dihydroxy-6-(hydroxymethyl)-4-(4-(3,4,5-trifluorophenyl)-1H-1,2,3-triazol-1-yl)tetrahydro-2H-pyran-2-yl)thio)-2-(4-hydroxytetrahydro-2H-pyran-4-yl)-N-methyl-N-((1-methyl-1H-imidazol-4-yl)methyl)acetamide] | 370 | 60
16 | CN(CCC1CCOCC1)C(=O)C(S[C@@H]1O[C@H](CO)[C@H](O)[C@H](n2cc(-c3cc(F)c(F)c(F)c3)nn2)[C@H]1O)C1(O)CCOCC1 (stereo partly drawn) [Example 2.41.216., 2-(((2S,3R,4S,5R,6R)-3,5-Dihydroxy-6-(hydroxymethyl)-4-(4-(3,4,5-trifluorophenyl)-1H-1,2,3-triazol-1-yl)tetrahydro-2H-pyran-2-yl)thio)-2-(4-hydroxytetrahydro-2H-pyran-4-yl)-N-methyl-N-(2-(tetrahydro-2H-pyran-4-yl)ethyl)acetamide] | 380 | 60
17 | CN(CCC1CCOCC1)C(=O)[C@@H](S[C@@H]1O[C@H](CO)[C@H](O)[C@H](n2cc(-c3cc(F)c(F)c(F)c3)nn2)[C@H]1O)C1(O)CCOCC1 [Example 2.41.216S., (S)-2-(((2S,3R,4S,5R,6R)-3,5-Dihydroxy-6-(hydroxymethyl)-4-(4-(3,4,5-trifluorophenyl)-1H-1,2,3-triazol-1-yl)tetrahydro-2H-pyran-2-yl)thio)-2-(4-hydroxytetrahydro-2H-pyran-4-yl)-N-methyl-N-(2-(tetrahydro-2H-pyran-4-yl)ethyl)acetamide] | 110 | 20
